Experimental data from ChEMBL document CHEMBL1129734, “Synthesis and structure-activity relationships of a new model of arylpiperazines. 1. 2-[[4-(o-methoxyphenyl)piperazin-1-yl]methyl]-1, 3-dioxoperhydroimidazo[1,5-alpha]pyridine: a selective 5-HT1A receptor agonist” (J Med Chem, 1996).

How the values were obtained:
[1] = target: T1, 5-hydroxytryptamine receptor 1A (Rattus norvegicus, UniProt P19327); assay: Binding affinity towards rat 5-hydroxytryptamine 1A receptor using [3H]8-OH-DPAT radioligand.
T1 sequence (P19327 whole entry): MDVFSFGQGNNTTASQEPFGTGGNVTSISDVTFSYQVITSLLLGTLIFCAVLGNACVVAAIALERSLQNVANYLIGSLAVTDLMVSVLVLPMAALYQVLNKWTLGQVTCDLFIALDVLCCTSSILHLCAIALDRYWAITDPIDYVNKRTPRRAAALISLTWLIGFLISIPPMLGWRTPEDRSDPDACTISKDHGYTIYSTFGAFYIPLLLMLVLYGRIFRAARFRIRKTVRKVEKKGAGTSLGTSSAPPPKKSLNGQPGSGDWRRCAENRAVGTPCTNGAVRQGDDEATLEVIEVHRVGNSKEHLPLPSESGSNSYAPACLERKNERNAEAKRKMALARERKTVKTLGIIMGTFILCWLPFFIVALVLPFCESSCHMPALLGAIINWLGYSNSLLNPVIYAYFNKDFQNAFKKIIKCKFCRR

[2] = target: T2, Adrenergic receptor alpha-1 (Rattus norvegicus, UniProt P15823+P23944+P43140); assay: Binding affinity towards alpha-1 adrenergic receptor using [3H]prazosin radioligand.; type: protein assay
T2 sequence (P15823 whole entry): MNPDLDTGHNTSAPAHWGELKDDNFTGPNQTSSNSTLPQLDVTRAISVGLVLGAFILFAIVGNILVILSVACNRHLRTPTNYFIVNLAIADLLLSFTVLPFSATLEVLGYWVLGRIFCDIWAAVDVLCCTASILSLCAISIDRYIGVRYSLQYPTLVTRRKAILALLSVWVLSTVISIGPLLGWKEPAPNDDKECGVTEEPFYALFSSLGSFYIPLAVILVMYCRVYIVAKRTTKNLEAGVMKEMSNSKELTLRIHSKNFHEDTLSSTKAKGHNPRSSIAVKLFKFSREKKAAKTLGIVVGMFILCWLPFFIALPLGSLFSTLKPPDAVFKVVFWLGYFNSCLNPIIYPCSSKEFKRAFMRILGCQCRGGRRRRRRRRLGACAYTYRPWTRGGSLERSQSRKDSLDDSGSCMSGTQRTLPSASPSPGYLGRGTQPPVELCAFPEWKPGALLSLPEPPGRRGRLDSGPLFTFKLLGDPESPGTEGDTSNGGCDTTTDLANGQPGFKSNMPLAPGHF
T2 sequence (P23944 whole entry): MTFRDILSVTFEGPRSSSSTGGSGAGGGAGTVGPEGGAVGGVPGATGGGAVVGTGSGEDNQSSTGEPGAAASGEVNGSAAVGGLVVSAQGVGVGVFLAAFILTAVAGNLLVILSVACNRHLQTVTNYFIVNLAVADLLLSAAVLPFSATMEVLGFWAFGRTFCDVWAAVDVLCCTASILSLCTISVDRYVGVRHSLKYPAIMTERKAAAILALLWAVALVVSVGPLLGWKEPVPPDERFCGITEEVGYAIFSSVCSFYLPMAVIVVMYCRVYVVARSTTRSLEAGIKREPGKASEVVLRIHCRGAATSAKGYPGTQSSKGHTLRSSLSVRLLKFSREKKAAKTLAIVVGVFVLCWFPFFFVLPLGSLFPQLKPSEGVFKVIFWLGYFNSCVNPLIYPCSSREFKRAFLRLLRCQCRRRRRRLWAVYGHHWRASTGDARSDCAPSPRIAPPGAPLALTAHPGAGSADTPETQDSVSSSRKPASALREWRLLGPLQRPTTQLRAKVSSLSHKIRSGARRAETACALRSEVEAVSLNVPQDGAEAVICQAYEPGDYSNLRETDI
T2 sequence (P43140 whole entry): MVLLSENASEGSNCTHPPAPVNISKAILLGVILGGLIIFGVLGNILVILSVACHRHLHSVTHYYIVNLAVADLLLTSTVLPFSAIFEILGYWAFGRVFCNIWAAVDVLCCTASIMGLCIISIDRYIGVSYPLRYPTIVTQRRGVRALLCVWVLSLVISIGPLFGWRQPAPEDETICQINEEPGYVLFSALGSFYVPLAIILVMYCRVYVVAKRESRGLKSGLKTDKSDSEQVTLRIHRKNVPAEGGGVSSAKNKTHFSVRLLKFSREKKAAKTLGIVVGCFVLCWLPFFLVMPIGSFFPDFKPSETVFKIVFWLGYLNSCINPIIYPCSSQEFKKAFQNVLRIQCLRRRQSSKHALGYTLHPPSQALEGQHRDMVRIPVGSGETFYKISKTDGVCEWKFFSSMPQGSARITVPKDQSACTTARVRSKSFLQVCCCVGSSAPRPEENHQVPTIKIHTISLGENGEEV

D(2) dopamine receptor = D(2) dopamine receptor (Rattus norvegicus, UniProt P61169); assay: Binding affinity towards dopamine receptor D2 using [3H]-raclopride radioligand.
Chain of D(2) dopamine receptor (P61169 whole entry): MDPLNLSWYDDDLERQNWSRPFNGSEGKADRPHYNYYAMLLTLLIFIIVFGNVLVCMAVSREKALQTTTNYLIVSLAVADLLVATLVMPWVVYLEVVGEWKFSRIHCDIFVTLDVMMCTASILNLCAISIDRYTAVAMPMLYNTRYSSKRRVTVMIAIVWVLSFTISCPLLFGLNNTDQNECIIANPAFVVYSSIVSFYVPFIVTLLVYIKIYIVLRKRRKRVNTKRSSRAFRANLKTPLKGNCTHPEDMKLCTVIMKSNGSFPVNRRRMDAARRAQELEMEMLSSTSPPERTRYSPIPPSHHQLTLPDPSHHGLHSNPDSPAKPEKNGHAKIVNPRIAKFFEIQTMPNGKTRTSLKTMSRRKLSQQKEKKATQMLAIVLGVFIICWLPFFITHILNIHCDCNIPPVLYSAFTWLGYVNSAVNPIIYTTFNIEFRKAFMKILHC

| SMILES | Ki [1] | Ki [2] | Ki (D(2) dopamine receptor) |
| --- | --- | --- | --- |
| O=C1C2CCCN2C(=O)N1CN1CCN(c2ccc([N+](=O)[O-])cc2)CC1 (stereo not drawn) | > 1000 nM | > 10000 nM | > 10000 nM |
| O=C1C2CCCCN2C(=O)N1CN1CCN(c2ccc(F)cc2)CC1 (stereo not drawn) | 444 nM | 869 nM | > 10000 nM |
| O=C1C2CCCCN2C(=O)N1CCN1CCN(c2ccc([N+](=O)[O-])cc2)CC1 (stereo not drawn) | > 10000 nM | > 10000 nM | > 10000 nM |
| O=C1C2CCCN2C(=O)N1CN1CCN(c2cccc(Cl)c2)CC1 (stereo not drawn) | 58.4 nM | 292 nM | > 10000 nM |
| O=C1C2CCCN2C(=O)N1CCCCN1CCN(c2ccc([N+](=O)[O-])cc2)CC1 (stereo not drawn) | > 1000 nM | 247 nM | > 1000 nM |
| O=C1C2CCCCN2C(=O)N1CCN1CCN(c2ccc(F)cc2)CC1 (stereo not drawn) | > 10000 nM | > 1000 nM | > 10000 nM |
| O=C1C2CCCN2C(=O)N1CCCCN1CCN(c2ccc(F)cc2)CC1 (stereo not drawn) | 89.9 nM | 47.2 nM | > 1000 nM |
| O=C1C2CCCN2C(=O)N1CCCN1CCN(c2ccc([N+](=O)[O-])cc2)CC1 (stereo not drawn) | > 10000 nM | > 1000 nM | > 10000 nM |
| O=C1C2CCCCN2C(=O)N1CN1CCN(c2cccc(Cl)c2)CC1 (stereo not drawn) | 57.7 nM | 135 nM | > 10000 nM |
| O=C1C2CCCCN2C(=O)N1CN1CCN(c2ccc([N+](=O)[O-])cc2)CC1 (stereo not drawn) | > 1000 nM | > 10000 nM | > 10000 nM |
| O=C1C2CCCCN2C(=O)N1CCCN1CCN(c2cccc(C(F)(F)F)c2)CC1 (stereo not drawn) | 5.7 nM | 90.4 nM | > 1000 nM |
| COc1ccccc1N1CCN(CCCCN2C(=O)C3CCCCN3C2=O)CC1 (stereo not drawn) | 8.8 nM | 8.6 nM | > 1000 nM |
| O=C1C2CCCCN2C(=O)N1CN1CCN(c2cccc(C(F)(F)F)c2)CC1 (stereo not drawn) | 78.6 nM | > 1000 nM | > 1000 nM |
| O=C1C2CCCCN2C(=O)N1CCN1CCN(c2cccc(C(F)(F)F)c2)CC1 (stereo not drawn) | 65.8 nM | > 1000 nM | > 1000 nM |
| O=C1C2CCCN2C(=O)N1CCN1CCN(c2cccc(C(F)(F)F)c2)CC1 (stereo not drawn) | 123 nM | > 1000 nM | > 1000 nM |
| O=C1C2CCCN2C(=O)N1CCN1CCN(c2ccc([N+](=O)[O-])cc2)CC1 (stereo not drawn) | > 10000 nM | > 10000 nM | > 10000 nM |
| O=C1C2CCCCN2C(=O)N1CCCN1CCN(c2ccc([N+](=O)[O-])cc2)CC1 (stereo not drawn) | > 10000 nM | > 1000 nM | > 10000 nM |
| O=C1C2CCCN2C(=O)N1CCCN1CCN(c2cccc(C(F)(F)F)c2)CC1 (stereo not drawn) | 3.8 nM | 109 nM | > 1000 nM |
| O=C1C2CCCCN2C(=O)N1CCCN1CCN(c2ccc(F)cc2)CC1 (stereo not drawn) | 598 nM | 25.8 nM | > 1000 nM |
| O=C1C2CCCN2C(=O)N1CN1CCN(c2ccccc2)CC1 (stereo not drawn) | 85.3 nM | 1000 nM | > 10000 nM |
| O=C1C2CCCCN2C(=O)N1CN1CCN(c2ccccc2)CC1 (stereo not drawn) | 101 nM | > 1000 nM | > 10000 nM |
| O=C1C2CCCN2C(=O)N1CN1CCN(c2ccc(F)cc2)CC1 (stereo not drawn) | 500 nM | > 1000 nM | > 10000 nM |
| O=C1C2CCCN2C(=O)N1CCN1CCN(c2cccc(Cl)c2)CC1 (stereo not drawn) | 418 nM | 500 nM | > 1000 nM |
| O=C1C2CCCN2C(=O)N1CCN1CCN(c2ccc(F)cc2)CC1 (stereo not drawn) | > 10000 nM | > 1000 nM | > 10000 nM |
| O=C1C2CCCN2C(=O)N1CCN1CCN(c2ccccc2)CC1 (stereo not drawn) | > 1000 nM | > 1000 nM | > 1000 nM |

Further lines, results first:

| Ki [1] | Ki [2] | Ki (D(2) dopamine receptor) | SMILES |
| --- | --- | --- | --- |
| > 1000 nM | > 1000 nM | > 1000 nM | O=C1C2CCCCN2C(=O)N1CCN1CCN(c2ccccc2)CC1 (stereo not drawn) |
| 55.9 nM | 21.6 nM | > 1000 nM | O=C1C2CCCN2C(=O)N1CCCN1CCN(c2cccc(Cl)c2)CC1 (stereo not drawn) |
| > 1000 nM | > 1000 nM | > 1000 nM | O=C1C2CCCCN2C(=O)N1CCCCN1CCN(c2ccc([N+](=O)[O-])cc2)CC1 (stereo not drawn) |
| 234 nM | 190 nM | 361 nM | COc1ccccc1N1CCN(CCN2C(=O)C3CCCN3C2=O)CC1 (stereo not drawn) |
| 128 nM | 375 nM | > 1000 nM | O=C1C2CCCCN2C(=O)N1CCN1CCN(c2cccc(Cl)c2)CC1 (stereo not drawn) |
| 120 nM | > 1000 nM | > 1000 nM | O=C1C2CCCN2C(=O)N1CN1CCN(c2cccc(C(F)(F)F)c2)CC1 (stereo not drawn) |
| 2.4 nM | 64.9 nM | > 1000 nM | O=C1C2CCCN2C(=O)N1CCCCN1CCN(c2cccc(C(F)(F)F)c2)CC1 (stereo not drawn) |
| 5.5 nM | 8.3 nM | 107 nM | COc1ccccc1N1CCN(CCCCN2C(=O)C3CCCN3C2=O)CC1 (stereo not drawn) |
| 4.4 nM | 3.1 nM | > 1000 nM | COc1ccccc1N1CCN(CCCN2C(=O)C3CCCN3C2=O)CC1 (stereo not drawn) |
| 34.9 nM | 500 nM | > 1000 nM | COc1ccccc1N1CCN(CN2C(=O)C3CCCN3C2=O)CC1 (stereo not drawn) |
| 19.2 nM | 15.4 nM | > 1000 nM | O=C1C2CCCN2C(=O)N1CCCN1CCN(c2ccccc2)CC1 (stereo not drawn) |
| 53.6 nM | 17.9 nM | > 1000 nM | O=C1C2CCCCN2C(=O)N1CCCN1CCN(c2cccc(Cl)c2)CC1 (stereo not drawn) |
| 45.5 nM | 131 nM | 246 nM | COc1ccccc1N1CCN(CCN2C(=O)C3CCCCN3C2=O)CC1 (stereo not drawn) |
| 57.9 nM | 10.4 nM | 615 nM | O=C1C2CCCCN2C(=O)N1CCCCN1CCN(c2ccc(F)cc2)CC1 (stereo not drawn) |
| > 1000 nM | 25.2 nM | > 1000 nM | O=C1C2CCCN2C(=O)N1CCCN1CCN(c2ccc(F)cc2)CC1 (stereo not drawn) |
| 154 nM | 11.4 nM | > 1000 nM | O=C1C2CCCCN2C(=O)N1CCCN1CCN(c2ccccc2)CC1 (stereo not drawn) |
| 4.1 nM | 9.9 nM | > 1000 nM | COc1ccccc1N1CCN(CCCN2C(=O)C3CCCCN3C2=O)CC1 (stereo not drawn) |
|  | 18.6 nM | > 1000 nM | O=C1C2CCCCN2C(=O)N1CCCCN1CCN(c2ccccc2)CC1 (stereo not drawn) |
| 11.3 nM | 9.6 nM | 151 nM | O=C1C2CCCN2C(=O)N1CCCCN1CCN(c2cccc(Cl)c2)CC1 (stereo not drawn) |
| 24.8 nM | 26.4 nM | 416 nM | O=C1C2CCCN2C(=O)N1CCCCN1CCN(c2ccccc2)CC1 (stereo not drawn) |
| 7.2 nM | 12.1 nM | 129 nM | O=C1C2CCCCN2C(=O)N1CCCCN1CCN(c2cccc(Cl)c2)CC1 (stereo not drawn) |
|  |  | 64 nM | COc1ccccc1N1CCN(CCCCN2C(=O)c3ccccc3C2=O)CC1 [NAN-190] |
